In paper PMC10354055, “An optimized Nurr1 agonist provides disease-modifying effects in Parkinson’s disease models” (Nature Communications, 2023):
Where “and” joins values, the source holds several entries; their conditions need not be identical. Equal values may be shown once.

Tests used:
N27-A cells = assay: Cell viability, MTT reduction, MPP+-treated N27-A cells; assay type: cell-based, rat; conditions: Fig. 2a, CQ 100 µM, 4A7C-301 1 µM
MN9D cells = assay: Dopaminergic gene expression (TH, DAT, AADC, VMAT2, c-Ret), qRT-PCR, MN9D cells with MPP+; assay type: cell-based, mouse; conditions: for Relative TH mRNA expression (fold of Cont.): Fig. S5a; for Relative DAT mRNA expression (fold of Cont.): Fig. S5b; for Relative AADC mRNA expression (fold of Cont.): Fig. S5c; for Relative c-Ret mRNA expression (fold of Cont.): Fig. S5e; for Relative VMAT mRNA expression (fold of Cont.): Fig. S5d
Description: (§1) Total RNA was extracted using the GeneJET RNA Purification Kit (Thermo Fisher Scientific) and 100 ng of RNA was subjected to cDNA synthesis using Invitrogen Superscript cDNA Synthesis Kit (Invitrogen) according to the manufacturer’s protocol. qRT-PCR was performed using a CFX Connect Real-Time System (Bio-Rad) in a 20 μl volume mixture containing 2X SsoAdvanced Universal SYBR Green Supermix (Bio-Rad), 100 ng/μl of forward and reverse primers, and 1 μl of cDNA sample. Gene expression levels were quantified by the 2^∆∆CT method (Ct of target gene—Ct of glyceraldehyde-3-phosphate dehydrogenase (GAPDH). The following primers were used for qRT-PCR: TH forward: 5′-[…]-3′, reverse: 5′-[…]-3′; DAT forward: 5′-[…]-3′, reverse: 5′-[…]-3′; AADC forward: 5′-[…]-3′, reverse: 5′-[…]-3′; VMAT2 forward: 5′-[…]-3′, reverse: 5′-[…]-3′; c-Ret forward: 5′-[…]-3′, reverse: 5′-[…]-3′; TNFα forward: 5′-[…]-3′; reverse: 5′-[…]-3′; GAPDH, forward 5′-[…]-3′, reverse 5′-[…]-3′.

[1] = system: mouse ventral mesencephalic (VM) primary cells; assay: Dopaminergic gene expression, qRT-PCR, primary VM cells with 6-OHDA; assay type: cell-based
Description: as §1
Briefly, dissected VM brain tissues were collected in ice-cold Dulbecco’s phosphate-buffered saline (DPBS) and then mechanically dissociated using pipettes. Thereafter, dissociated tissues were incubated in 0.05 % Trypsin-EDTA (Invitrogen) for 5 min at 37 °C. The cell suspension was plated onto glass coverslips in 48-well plates pre-coated with […] poly-L-ornithine, 5 μg/ml Fibronectin or 1 μg/ml Laminin at a density of 2.0 × 10^5 cells/cm^2 in differentiation medium (1% heat-inactivated FBS, 2 mM L-glutamine, 50X B27 supplement, 100 μM ascorbic acid and 2 μg/ml bFGF in Neurobasal media).

TNFα gene = assay: LPS-induced TNFα gene expression in BV2 cells, qRT-PCR; assay type: cell-based, mouse; conditions: for Relative TNFα expression (% of control): Fig. S6, LPS
Description: SK-N-BE(2)C human neuroblastoma, BV2 mouse microglia (ATCC), HeLa and MN9D cell lines were cultured in Dulbecco’s Modified Eagle Medium (DMEM) supplemented with 10% fetal bovine serum (FBS) and 100 U /ml penicillin and 100 μg /ml streptomycin. The murine MN9D dopaminergic cell line was kindly provided by Drs. Michael Zigmond and Juliann Jaumotte from the University of Pittsburgh. The N27-A rat dopaminergic cell line was kindly provided by Dr. Curt Freed from the University of Colorado School of Medicine. […] For transactivity assay, SK-N-BE(2)C and N27-A cell lines were transfected with pCMV-fNurr1, pGAL-Nurr1(LBD), pGAL-Nor1(LBD) or pGAL-Nur77(LBD) and reporter construct (p4xNL3-Luc for fNurr1 or p8xUAS-Luc for LBD constructs). pRSV-β-gal was co-transfected as an internal control. Cells were lysed in a lysis buffer (25 mM Tris-phosphate (pH 7.8), 2 mM DTT, 2 mM DCTA (1,2-diaminocyclohexane-N,N,N′,N′-tetraacetic acid), 10% glycerol, and 1% Triton X-100) 24 h after transfection, followed by adding firefly luciferase substrate for luminescence detection measured by a luminometer plate reader (SpectraMax®; Molecular device). Nurr1 transactivity was normalized to β-galactosidase activity. […] For Nurr1 stability determination, MN9D cells were incubated with MPP^+ (0.5 mM) for 2, 4, 8, 16, 24, and 32 h, or were transduced with lentivirus expressing GFP only or αSyn (wild-type or A53T) then harvested 24, 48 and 72 h after transduction. For autophagolysosome (APL) formation assay, HeLa and N27-A cells were transfected with mRFP-GFP-LC3 (Addgene) using Lipofectamine 2000 (Invitrogen). The medium was changed with starvation medium (Earle’s Balanced Salt Solution; EBSS) 24 h after transfection for autophagy induction.
as §1

MPTP-induced male mice [2] = assay: Pole test, MPTP-induced PD model mice; assay type: in vivo, mouse
Description: (§2) MPTP (Sigma-Aldrich) was intraperitoneally (i.p.) injected (30 mg/kg) for 5 days (Day 1-5). […] To test dyskinetic involuntary behavior, an L-DOPA injected group was included, which received 50 mg/kg of L-DOPA and 15 mg/kg of benserazide (Sigma-Aldrich) (i.p.) for 16 days (Day 1–16). All compounds were administered 6 h post-MPTP injection to avoid any effect of compounds on the MPTP metabolism in the brain. Motor and non-motor related behavior tests were performed on the following days as described in Fig. 4a in an assessor- and observer-blinded fashion. Pre-training and baseline setup for motor-related behaviors were performed 3 days prior to the injections. Mice were sacrificed and subjected to immunohistochemistry. Mice were housed at the Animal Care Facilities of McLean Hospital under a 12-h light/12-h dark cycle, ambient temperature and humidity. Animals were handled in accordance with McLean Hospital’s Institutional Animal Care and Use Committee (Protocol #: 2015N000002) and followed National Institutes of Health guidelines.
Mice were trained to descend a vertical metal rod wrapped with rough tape (80 cm high, 12 mm diameter) once per day for 2 days, and then the baseline was measured before the pole test (3 days before the MPTP injection or the first pole test at week 2). Mice were placed head-upward on the pole and total descent time was recorded.

MPTP-induced male mice [3] = assay: Cylinder test, MPTP-induced PD model mice; assay type: in vivo, mouse
Description: as §2
Mice were placed in a transparent plastic cylinder (15.5 cm high, 12.7 cm diameter) with a mirror behind it. Spontaneous activity was recorded and measured as counting the number of rearing events for 3 min session. A rear was considered only when the mouse touched the wall of the cylinder with its forelimb paws while standing on its hindlimbs (vertical movement) to count meaningful physiological movements.

[4] = CQ 40, 4A7C-301 5, L-DOPA 50 mg/kg/day, i.p., 16 days

CCN1CCN(c2cc(N3CCN(CC)CC3)nc(NCCNc3ccnc4cc(Cl)ccc34)n2)CC1 [4A7C-301, N^1-(4,6-bis(4-ethylpiperazin-1-yl)pyrimidin-2-yl)-N^2-(7-chloroquinolin-4-yl)ethane-1,2-diamine]
MTT reduction (%) (N27-A cells; Control): 65.2632% and 62.1053% and 64.2105% and 61.0526%
MTT reduction (%) (N27-A cells; Nurr1 KD): 30.9278% and 29.8969% and 34.0206%
MTT reduction (%) (N27-A cells; Nurr1 OE): 86.5979% and 95.8763% and 87.6289% and 83.5052%
Relative TH mRNA expression (fold of Cont.) (MN9D cells; w/ MPP+): 1.331 fold of Cont. and 1.238 fold of Cont. and 1.4297 fold of Cont.
Relative TH mRNA expression (fold of Cont.) (MN9D cells; w/o MPP+): 2.626 fold of Cont. and 3.055 fold of Cont. and 2.8325 fold of Cont.
Relative DAT mRNA expression (fold of Cont.) (MN9D cells; w/ MPP+): 1.51 fold of Cont. and 1.43 fold of Cont. and 1.594 fold of Cont.
Relative DAT mRNA expression (fold of Cont.) (MN9D cells; w/o MPP+): 3.527 fold of Cont. and 3.949 fold of Cont. and 3.732 fold of Cont.
Relative AADC mRNA expression (fold of Cont.) (MN9D cells; w/ MPP+): 1.175 fold of Cont. and 1.144 fold of Cont. and 1.206 fold of Cont.
Relative AADC mRNA expression (fold of Cont.) (MN9D cells; w/o MPP+): 1.767 fold of Cont. and 1.615 fold of Cont. and 1.689 fold of Cont.
Relative c-Ret mRNA expression (fold of Cont.) (MN9D cells; w/ MPP+): 0.9952 fold of Cont. and 1.121 fold of Cont. and 0.8833 fold of Cont.
Relative c-Ret mRNA expression (fold of Cont.) (MN9D cells; w/o MPP+): 1.827 fold of Cont. and 2.268 fold of Cont. and 2.036 fold of Cont.
Relative VMAT mRNA expression (fold of Cont.) (MN9D cells; w/ MPP+): 1.0229 fold of Cont. and 0.9814 fold of Cont. and 1.066 fold of Cont.
Relative VMAT mRNA expression (fold of Cont.) (MN9D cells; w/o MPP+): 2.085 fold of Cont. and 1.956 fold of Cont. and 2.019 fold of Cont.
dopaminergic gene expression (in words) (MN9D cells; MN9D, decreased by MPP+): significantly rescued
concentration for similar effect, times lower than CQ (MN9D cells; dopaminergic gene expression, MN9D and VM primary cells): 20–40 times
Relative mRNA levels (fold of Control), AADC ([1]; Fig. S5f/S5g, with 6-OHDA): 1.28 fold of Control and 1.13 fold of Control and 1.203 fold of Control
Relative mRNA levels (fold of Control), DAT ([1]; Fig. S5f/S5g, with 6-OHDA): 1.197 fold of Control and 1.193 fold of Control and 1.282 fold of Control
Relative mRNA levels (fold of Control), TH ([1]; Fig. S5f/S5g, with 6-OHDA): 0.9704 fold of Control and 1 fold of Control and 1.046 fold of Control
Relative mRNA levels (fold of Control), VMAT2 ([1]; Fig. S5f/S5g, with 6-OHDA): 0.9594 fold of Control and 0.8951 fold of Control and 0.9343 fold of Control
Relative mRNA levels (fold of Control), c-Ret ([1]; Fig. S5f/S5g, with 6-OHDA): 0.9509 fold of Control and 0.8338 fold of Control and 0.9285 fold of Control
Relative mRNA levels (fold of Control), AADC ([1]; Fig. S5f/S5g, without 6-OHDA): 1.446 fold of Control and 1.683 fold of Control and 1.592 fold of Control
Relative mRNA levels (fold of Control), DAT ([1]; Fig. S5f/S5g, without 6-OHDA): 2.907 fold of Control and 2.949 fold of Control and 3.159 fold of Control
Relative mRNA levels (fold of Control), TH ([1]; Fig. S5f/S5g, without 6-OHDA): 2.273 fold of Control and 2.094 fold of Control and 2.264 fold of Control
Relative mRNA levels (fold of Control), VMAT2 ([1]; Fig. S5f/S5g, without 6-OHDA): 1.573 fold of Control and 1.37 fold of Control and 1.5834 fold of Control
Relative mRNA levels (fold of Control), c-Ret ([1]; Fig. S5f/S5g, without 6-OHDA): 1.652 fold of Control and 1.7584 fold of Control and 1.7573 fold of Control
Relative mRNA levels (fold of Control), AADC ([1]; Fig. S5h/S5i, with 6-OHDA): 0.268 fold of Control and 0.3023 fold of Control and 0.2821 fold of Control
Relative mRNA levels (fold of Control), DAT ([1]; Fig. S5h/S5i, with 6-OHDA): 0.1919 fold of Control and 0.1982 fold of Control and 0.2381 fold of Control
Relative mRNA levels (fold of Control), TH ([1]; Fig. S5h/S5i, with 6-OHDA): 0.3682 fold of Control and 0.3362 fold of Control and 0.3267 fold of Control
Relative mRNA levels (fold of Control), VMAT2 ([1]; Fig. S5h/S5i, with 6-OHDA): 0.2168 fold of Control and 0.2497 fold of Control and 0.2445 fold of Control
Relative mRNA levels (fold of Control), c-Ret ([1]; Fig. S5h/S5i, with 6-OHDA): 0.2351 fold of Control and 0.2454 fold of Control and 0.2588 fold of Control
Relative mRNA levels (fold of Control), AADC ([1]; Fig. S5h/S5i, without 6-OHDA): 0.385 fold of Control and 0.3813 fold of Control and 0.3915 fold of Control
Relative mRNA levels (fold of Control), DAT ([1]; Fig. S5h/S5i, without 6-OHDA): 0.3184 fold of Control and 0.317 fold of Control and 0.3059 fold of Control
Relative mRNA levels (fold of Control), TH ([1]; Fig. S5h/S5i, without 6-OHDA): 0.5668 fold of Control and 0.4913 fold of Control and 0.5193 fold of Control
Relative mRNA levels (fold of Control), VMAT2 ([1]; Fig. S5h/S5i, without 6-OHDA): 0.4847 fold of Control and 0.4471 fold of Control and 0.4495 fold of Control
Relative mRNA levels (fold of Control), c-Ret ([1]; Fig. S5h/S5i, without 6-OHDA): 0.4648 fold of Control and 0.44 fold of Control and 0.4811 fold of Control
dopaminergic gene expression (in words) ([1]; VM primary cells, decreased by 6-OHDA, CQ 20 µM, 4A7C-301 0.5 µM): significantly rescued
Relative TNFα expression (% of control) (TNFα gene; Conc. 0.0001 µM): 72.3049 % of control and 70.453 % of control and 74.7916 % of control
Relative TNFα expression (% of control) (TNFα gene; Conc. 0.001 µM): 45.7586 % of control and 44.0429 % of control and 42.816 % of control
Relative TNFα expression (% of control) (TNFα gene; Conc. 0.01 µM): 26.6218 % of control and 26.6304 % of control and 26.1645 % of control
Relative TNFα expression (% of control) (TNFα gene; Conc. 0.1 µM): 25.1791 % of control and 23.3247 % of control and 22.8855 % of control
Relative TNFα expression (% of control) (TNFα gene; Conc. 1 µM): 21.147 % of control and 21.3464 % of control and 19.5073 % of control
EC50 (TNFα gene; Mus musculus, BV-2, suppression of LPS-induced TNFα gene, BV2 cells, read-out: EC50): ~1 nM
motor function, pole test (in words) (MPTP-induced male mice [2]; [4]): significantly rescued
Time to traverse (MPTP-induced male mice [2]; Figure 4c, MPTP-induced mice, individual animal values): 9.46 s and 8.08 s and 8.64 s and 7.97 s and 6.34 s and 6.11 s and 6.58 s and 5.5 s and 7.12 s
motor function, cylinder test (in words) (MPTP-induced male mice [3]; [4]): significantly rescued
Number of rearing (MPTP-induced male mice [3]; Figure 4d, MPTP-induced mice, individual animal values): 34 and 51 and 29 and 33 and 22 and 71 and 46
